Converted amounts (≈) assume the structure as drawn.
Experiments:
[1] = Lipophilicity, log D of the compound at pH 7.4; format: physicochemical; details: buffer
[2] = Solubility of the compound; format: physicochemical

| logD [1] | solubility [2] [µM] | SMILES |
| --- | --- | --- |
| 3.3 |  | O=C(Nc1cc(Nc2ccccc2)ccn1)C1CC1 |
| 3.3 | 46 (≈ 15.3 µg/mL) | O=C(Nc1cc(Nc2c(Cl)ccc3c2OCO3)ccn1)C1CC1 |
